From patent US8268823B2, “Medical use of triazine derivatives” (University of Greenwich, priority 2006, dated 2012)
Where two headings read alike, the source gives them in different places.

Key:
[1] = target: T1, DiHydroFolate Reductase (DHFR) (Rattus norvegicus, UniProt Q920D2); test: inhibition of binding of [3H]methotrexate to rat liver homogenate supernatant; details: for IC50: rat liver supernatant
T1 construct: from tissue; host or cells: rat liver homogenate supernatant (47,500 x g)
T1 sequence (Q920D2 1-187): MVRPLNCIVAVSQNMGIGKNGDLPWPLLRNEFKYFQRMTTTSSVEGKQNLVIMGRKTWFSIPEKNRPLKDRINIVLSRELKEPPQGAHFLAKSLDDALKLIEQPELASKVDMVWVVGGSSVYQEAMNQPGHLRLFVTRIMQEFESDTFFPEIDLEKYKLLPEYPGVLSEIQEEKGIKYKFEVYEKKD
Protocol: All steps were carried out at 4° (or on ice). Freshly dissected rat liver was dissected into 0.25M ice-cold Sucrose and subsequently homogenised (U-turrax) in 50 mM pH 6.0 phosphate buffer (10 ml/g tissue) containing 15 mM Dithiothreitol. The resulting homogenate was centrifuged @ 47,500×g for 20 min and supernatant (filtered through cotton wool to remove fatty lumps) stored @-80° before use (Rothenberg et al).
The binding reaction was stopped by the addition of 50 μl of a charcoal suspension (consisting of charcoal, Bovine Serum Albumin and Dextran present in a weight ratio of 100:4:1 suspended in 50 mM pH 6.0 phosphate buffer. Samples were vortexed, allowed to stand for 2 minutes and charcoal was precipitated by microcentrifugation @ full speed for 5 min. Aliquots of clear supernatant were transferred to counting vials containing liquid scintillant for measurement of radioactivity using Liquid Scintillation Spectroscopy.
Percentage inhibition values were calculated by comparison to this value.
(§1) Data are presented as mean±sem of number of experiments indicated in brackets.

sodium channel [2] = test: veratrine-evoked uptake of [14C]guanidine into rat forebrain synaptosomes ([14C]guanidine flux); type: biochemical
Protocol: The screening strategy is designed to select compounds with appropriate sodium channel blocking activity and low side effect liability. To this end all compounds are processed through the primary sodium channel assay (veratrine-evoked uptake of [^14C]guanidine into rat forebrain synaptosomes) and IC50 values computed from generated concentration-effect curves.
Synaptosomes (heavy and light mitochondrial fraction containing synaptosomes) were prepared by transferring the forebrain (of known wet weight) to a glass Potter vessel to which 9 volumes ice-cold 0.25M sucrose had been added and homogenising, using a teflon pestle, by 8 ‘up and down strokes’ of a Braun Potter S motor driven homogeniser set to 900 rpm. The resulting homogenate was centrifuged at 1036×g at 4° for 10 min and the supernatant collected. The remaining pellet was resuspended, as above, in fresh ice-cold 0.25M sucrose and the centrifugation step repeated. The supernatant fractions were pooled and centrifuged at 40,000×g (average) at 4° for 15 min and the resulting pellet resuspended in the appropriate assay buffer at a concentration of 20-25 mg wet weight per ml appropriate assay buffer.
Both assays were carried out using 14 ml polypropylene test tubes to which a range of concentrations of the compounds under test were added.
Compounds under test were pre-incubated for 10 min at 30° in incubation buffer (50 mM pH 7.4 HEPES (adjusted to pH 7.4 with Tris base), 130 mM choline chloride, 5.5 mM D-glucose, 0.8 mm MgSO4 and 5 mM KCl) containing 7.5 mg original wet weight of tissue and 100 μg veratrine HCl in a final volume of 0.5 ml. […] A further 2×5 ml of ice-cold wash buffer was added to each tube and the vacuum filtration step repeated. The GF/C glass fibre filters were transferred to minivials and 4 ml Picofluor^40 liquid scintillant added using a Brandel™ deposit/dispense system. Radioactivity was measured using a Beckman Liquid Scintillation Counter.
as §1

sodium channel [3] = type: binding, rat
hERG potassium channel [4] = target: T2, hERG potassium channel (Homo sapiens, UniProt Q12809); test: inhibition of binding of [3H]astemizole to cell membranes expressing hERG; details: for selectivity ratio: human, cell membranes expressing hERG, probe [3H]astemizole
T2 sequence (Q12809 whole entry): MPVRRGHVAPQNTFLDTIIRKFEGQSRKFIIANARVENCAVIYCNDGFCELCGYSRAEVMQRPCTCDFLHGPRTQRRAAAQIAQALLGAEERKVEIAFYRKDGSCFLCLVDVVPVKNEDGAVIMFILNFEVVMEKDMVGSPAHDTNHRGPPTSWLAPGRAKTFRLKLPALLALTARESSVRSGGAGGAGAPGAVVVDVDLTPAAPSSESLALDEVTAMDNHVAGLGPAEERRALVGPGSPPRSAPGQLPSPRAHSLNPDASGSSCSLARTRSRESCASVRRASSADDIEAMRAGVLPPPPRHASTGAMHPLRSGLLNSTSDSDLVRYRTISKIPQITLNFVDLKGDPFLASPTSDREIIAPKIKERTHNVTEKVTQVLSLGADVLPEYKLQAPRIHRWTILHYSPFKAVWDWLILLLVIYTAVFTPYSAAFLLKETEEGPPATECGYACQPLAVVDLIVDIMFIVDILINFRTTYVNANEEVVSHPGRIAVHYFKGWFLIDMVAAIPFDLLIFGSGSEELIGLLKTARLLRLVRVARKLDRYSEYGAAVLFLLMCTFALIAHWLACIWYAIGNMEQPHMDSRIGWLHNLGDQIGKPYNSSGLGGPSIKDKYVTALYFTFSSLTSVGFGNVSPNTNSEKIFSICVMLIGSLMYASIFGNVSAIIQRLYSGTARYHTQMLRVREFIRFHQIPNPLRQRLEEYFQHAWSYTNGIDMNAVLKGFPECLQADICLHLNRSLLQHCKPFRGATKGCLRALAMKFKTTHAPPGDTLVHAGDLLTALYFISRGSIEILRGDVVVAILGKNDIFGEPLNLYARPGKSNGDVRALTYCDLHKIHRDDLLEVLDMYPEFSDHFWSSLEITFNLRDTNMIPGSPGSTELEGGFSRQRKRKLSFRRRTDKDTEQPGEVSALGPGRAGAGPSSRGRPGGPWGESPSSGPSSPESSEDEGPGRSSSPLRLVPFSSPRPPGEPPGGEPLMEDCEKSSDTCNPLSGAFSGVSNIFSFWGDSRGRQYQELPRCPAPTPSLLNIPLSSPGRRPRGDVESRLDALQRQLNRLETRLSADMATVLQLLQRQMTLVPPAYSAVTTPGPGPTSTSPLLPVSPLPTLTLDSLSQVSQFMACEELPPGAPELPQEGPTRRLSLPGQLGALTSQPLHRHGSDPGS

hERG potassium channel [5] = target: T2, hERG potassium channel; test: in vitro; details: for selectivity ratio: hERG / [3H]BTX-B selectivity, ratio of extrapolated hERG IC50 to [3H]BTX-B IC50 (synaptosomes)
[6] = Table 3, rat forebrain synaptosomes, read-out: [14C]guanidine flux Mean (IC50: μM)
[7] = Table 4, tissue prep'n Synaptosomes, read-out: [3H]BTX-B binding Mean (IC50: μM)
[8] = read-out: [3H]methotrexate binding Inhibition (% @ assay conc'n), assay concentration 10 μM
[9] = read-out: [3H]methotrexate binding Inhibition (% @ assay conc'n), assay concentration 99 μM
[10] = Table 5, read-out: [14C]guanidine flux IC50
[11] = Table 5, Synaptosome data, read-out: [3H]BTX-B IC50

## Nc1nc(N)c(-c2cc(Cl)cc(Cl)c2Cl)c(CF)n1 [BW202W92, reference compound]
[1]; assay concentration 10 μM
  [3H]methotrexate binding Inhibition (% @ assay conc'n): −1%
[1]; assay concentration 99 μM
  [3H]methotrexate binding Inhibition (% @ assay conc'n): 29%
Sodium channel [2]; [6]
  IC50: 2 µM
Sodium channel [2]; Table 8
  pIC50 (uptake of [14C]guanidine): 5.61 ± 0.04
Sodium channel [2]; Table 8, read-out: IC50 (μM) (uptake of [14C]guanidine)
  IC50: 2.5 µM
Sodium channel [2]; Table 8, slope
  Hill (uptake of [14C]guanidine): 1.07
Sodium channel [3]; Table 1, synaptosomes, mean ± sem (n), read-out: [3H]BTX-B binding (synaptosomes), mean IC50
  IC50: 4.5 ± 0.4 µM
Sodium channel [3]; Table 4, tissue prep'n Homogenate, read-out: [3H]BTX-B binding Mean (IC50: μM)
  IC50: 4.1 µM
Sodium channel [3]; [7]
  IC50: 4.5 µM

## C=CCn1nc(-c2cccc(Cl)c2Cl)c(N)nc1=N [Example 10, 5(3)-Amino-6-(2,3-dichlorophenyl)-2,3(2,5)-dihydro-3(5)-imino-2-(prop-2-enyl)-1,2,4-triazine hemi-methanesulfonate]
[1]; [8]
  inhibition at 10 µM: -2%
[1]; [9]
  inhibition at 99 µM: -1%
Sodium channel [2]; [6]
  IC50: 6.1 µM
Sodium channel [2]; [10]
  IC50: 6.1 µM
hERG potassium channel [4]
  IC50: 10 µM
  selectivity ratio: 1.6
hERG potassium channel [5]
  inhibition at 10 µM: 50%

## N=c1nc(N)c(-c2cccc(Cl)c2Cl)nn1Cc1cccc(F)c1F [Example 13, 5(3)-Amino-6-(2,3-dichlorophenyl)-2,3(2,5)-dihydro-3(5)-imino-2-(2,3-difluoro)phenylmethyl-1,2,4-triazine]
[1]; [8]
  inhibition at 10 µM: -3%
[1]; [9]
  inhibition at 99 µM: -4%
Sodium channel [2]; [6]
  IC50: 2.8 µM
Sodium channel [2]; [10]
  IC50: 2.8 µM
hERG potassium channel [4]
  IC50: 1.9 µM
  selectivity ratio: 0.7
hERG potassium channel [5]
  inhibition at 10 µM: 84%

## N=c1nc(N)c(-c2cccc(Cl)c2Cl)nn1Cc1ccccc1F [Example 14, 5(3)-Amino-6-(2,3-dichlorophenyl)-2,3(2,5)-dihydro-3(5)-imino-2-(2-fluoro)phenylmethyl-1,2,4-triazine]
[1]; [8]
  inhibition at 10 µM: -1%
[1]; [9]
  inhibition at 99 µM: -4%
Sodium channel [2]; [6]
  IC50: 2.8 µM
Sodium channel [2]; [10]
  IC50: 2.8 µM
hERG potassium channel [4]
  IC50: 2.5 µM
  selectivity ratio: 0.9
hERG potassium channel [5]
  inhibition at 10 µM: 80%

## N=c1nc(N)c(-c2cccc(Cl)c2Cl)nn1Cc1cccc(F)c1 [Example 15, 5(3)-Amino-6-(2,3-dichlorophenyl)-2,3(2,5)-dihydro-3(5)-imino-2-(3-fluoro)phenylmethyl-1,2,4-triazine]
[1]; [8]
  inhibition at 10 µM: -4%
[1]; [9]
  inhibition at 99 µM: -5%
Sodium channel [2]; [6]
  IC50: 3.9 µM
Sodium channel [2]; [10]
  IC50: 3.9 µM
hERG potassium channel [4]
  IC50: 2 µM
  selectivity ratio: 0.5
hERG potassium channel [5]
  inhibition at 10 µM: 83%

## COc1ccccc1Cn1nc(-c2cccc(Cl)c2Cl)c(N)nc1=N [Example 17, 5(3)-Amino-6-(2,3-dichlorophenyl)-2,3(2,5)-dihydro-3(5)-imino-2-(2-methoxy)phenylmethyl-1,2,4-triazine]
[1]; [8]
  inhibition at 10 µM: -4%
[1]; read-out: [3H]methotrexate binding Inhibition (% @ assay conc'n), assay concentration 198 μM
  inhibition at 198 µM: -3%
Sodium channel [2]; [6]
  IC50: 4.6 µM
Sodium channel [2]; [10]
  IC50: 4.6 µM
hERG potassium channel [4]
  IC50: 1.9 µM
  selectivity ratio: 0.4
hERG potassium channel [5]
  inhibition at 10 µM: 84%

## COc1cccc(Cn2nc(-c3cccc(Cl)c3Cl)c(N)nc2=N)c1 [Example 18, 5(3)-Amino-6-(2,3-dichlorophenyl)-2,3(2,5)-dihydro-3(5)-imino-2-(3-methoxy)phenylmethyl-1,2,4-triazine]
[1]; [8]
  inhibition at 10 µM: -4%
[1]; [9]
  inhibition at 99 µM: -5%
Sodium channel [2]; [6]
  IC50: 3.1 µM
Sodium channel [2]; [10]
  IC50: 3.1 µM
hERG potassium channel [4]
  IC50: 1.5 µM
  selectivity ratio: 0.5
hERG potassium channel [5]
  inhibition at 10 µM: 87%

## N=c1nc(N)c(-c2cccc(Cl)c2Cl)nn1Cc1ccccc1C(F)(F)F [Example 23, 5(3)-Amino-6-(2,3-dichlorophenyl)-2,3(2,5)-dihydro-3(5)-imino-2-(2-trifluoromethyl)phenylmethyl-1,2,4-triazine]
Sodium channel [2]; [6]
  IC50: 4.4 µM
Sodium channel [2]; [10]
  IC50: 4.4 µM
hERG potassium channel [4]
  IC50: 1.1 µM
  selectivity ratio: 0.3
hERG potassium channel [5]
  inhibition at 10 µM: 90%

## N=c1nc(N)c(-c2cccc(Cl)c2Cl)nn1Cc1cccc(C(F)(F)F)c1 [Example 24, 5(3)-Amino-6-(2,3-dichlorophenyl)-2,3(2,5)-dihydro-3(5)-imino-2-(3-trifluoromethyl)phenylmethyl-1,2,4-triazine]
Sodium channel [2]; [6]
  IC50: 4 µM
Sodium channel [2]; [10]
  IC50: 4 µM
hERG potassium channel [4]
  IC50: 0.6 µM
  selectivity ratio: 0.2
hERG potassium channel [5]
  inhibition at 10 µM: 94%

## N=c1nc(N)c(-c2cccc(Cl)c2Cl)nn1Cc1ccsc1 [Example 29, 5(3)-Amino-6-(2,3-dichlorophenyl)-2,3(2,5)-dihydro-3(5)-imino-2-(3-thienylmethyl)-1,2,4-triazine]
[1]
  IC50: > 250 µM
Sodium channel [2]; [6]
  IC50: 7.3 µM
Sodium channel [2]; [10]
  IC50: 7.3 µM
Sodium channel [3]; [7]
  IC50: 2.2 µM
Sodium channel [3]; [11]
  IC50: 2.2 µM
hERG potassium channel [4]
  IC50: 2 µM
  selectivity ratio: 0.3
hERG potassium channel [5]
  inhibition at 10 µM: 83%
  selectivity ratio: 0.9

## N=c1nc(N)c(-c2cccc(Cl)c2Cl)nn1Cc1ccoc1 [Example 30, 5(3)-Amino-6-(2,3-dichlorophenyl)-2,3(2,5)-dihydro-3(5)-imino-2-(3-furanylmethyl)-1,2,4-triazine]
[1]
  IC50: > 250 µM
Sodium channel [2]; [6]
  IC50: 4.4 µM
Sodium channel [2]; [10]
  IC50: 4.4 µM
Sodium channel [3]; [7]
  IC50: 2.6 µM
Sodium channel [3]; [11]
  IC50: 2.6 µM
hERG potassium channel [4]
  IC50: 5.4 µM
  selectivity ratio: 1.2
hERG potassium channel [5]
  inhibition at 10 µM: 65%
  selectivity ratio: 2.1

## Cn1nc(-c2cccc(Cl)c2F)c(N)nc1=N [Example 36, 5(3)-Amino-6-(3-chloro-2-fluorophenyl)-2,3(2,5)-dihydro-3(5)-imino-2-methyl-1,2,4-triazine]
[1]
  IC50: > 300 µM
Sodium channel [2]; [6]
  IC50: 129 µM
Sodium channel [2]; [10]
  IC50: 129 µM
hERG potassium channel [4]
  IC50: 20.3 µM
  selectivity ratio: 0.2
hERG potassium channel [5]
  inhibition at 10 µM: 33%

## N=c1nc(N)c(-c2cccc(Cl)c2Cl)nn1CC1CCNCC1 [Example 38, 4-[5(3)-Amino-6-(2,3-dichlorophenyl)-2,3(2,5)-dihydro-3(5)-imino-1,2,4-triazin-2-ylmethyl]piperidine dimethanesulfonate or 5(3)-Amino-6-(2,3-dichlorophenyl)-2,3(2,5)-dihydro-3(5)-imino-2-(piperidin-4-yl)methyl-1,2,4-triazine]
[1]
  IC50: > 300 µM
Sodium channel [2]; [6]
  IC50: 20.9 µM
Sodium channel [2]; [10]
  IC50: 20.9 µM
hERG potassium channel [4]
  IC50: 2.5 µM
  selectivity ratio: 0.1
hERG potassium channel [5]
  inhibition at 10 µM: 80%

## N=c1nc(N)c(-c2cccc(Cl)c2Cl)nn1CCC(F)(F)F [Example 39, 5(3)-Amino-6-(2,3-dichlorophenyl)-2,3(2,5)-dihydro-3(5)-imino-2-(3,3,3-trifluoropropyl)-1,2,4-triazine]
[1]
  IC50: > 300 µM
Sodium channel [2]; [6]
  IC50: 3.9 µM
Sodium channel [2]; [10]
  IC50: 3.9 µM
Sodium channel [3]; [7]
  IC50: 1.6 µM
Sodium channel [3]; [11]
  IC50: 1.6 µM
hERG potassium channel [4]
  IC50: 15 µM
  selectivity ratio: 3.8
hERG potassium channel [5]
  inhibition at 10 µM: 40%
  selectivity ratio: 9.4
